According to ChEMBL document CHEMBL5465560, “Selectivity Literature for EUbOPEN Chemogenomic Library” (2024):

What was measured:
[1] = biological target: Vascular endothelial growth factor receptor 3 (Homo sapiens, UniProt P35916); assay: Selectivity interaction (KinomeScan (DiscoverX)) EUB0000229b FLT4; settings: at 10 µM
[2] = biological target: T1, SNF-related serine/threonine-protein kinase (Homo sapiens) (UniProt Q9NRH2); assay: Selectivity interaction (KinomeScan (DiscoverX)) EUB0000045b SNRK
T1 sequence (whole entry): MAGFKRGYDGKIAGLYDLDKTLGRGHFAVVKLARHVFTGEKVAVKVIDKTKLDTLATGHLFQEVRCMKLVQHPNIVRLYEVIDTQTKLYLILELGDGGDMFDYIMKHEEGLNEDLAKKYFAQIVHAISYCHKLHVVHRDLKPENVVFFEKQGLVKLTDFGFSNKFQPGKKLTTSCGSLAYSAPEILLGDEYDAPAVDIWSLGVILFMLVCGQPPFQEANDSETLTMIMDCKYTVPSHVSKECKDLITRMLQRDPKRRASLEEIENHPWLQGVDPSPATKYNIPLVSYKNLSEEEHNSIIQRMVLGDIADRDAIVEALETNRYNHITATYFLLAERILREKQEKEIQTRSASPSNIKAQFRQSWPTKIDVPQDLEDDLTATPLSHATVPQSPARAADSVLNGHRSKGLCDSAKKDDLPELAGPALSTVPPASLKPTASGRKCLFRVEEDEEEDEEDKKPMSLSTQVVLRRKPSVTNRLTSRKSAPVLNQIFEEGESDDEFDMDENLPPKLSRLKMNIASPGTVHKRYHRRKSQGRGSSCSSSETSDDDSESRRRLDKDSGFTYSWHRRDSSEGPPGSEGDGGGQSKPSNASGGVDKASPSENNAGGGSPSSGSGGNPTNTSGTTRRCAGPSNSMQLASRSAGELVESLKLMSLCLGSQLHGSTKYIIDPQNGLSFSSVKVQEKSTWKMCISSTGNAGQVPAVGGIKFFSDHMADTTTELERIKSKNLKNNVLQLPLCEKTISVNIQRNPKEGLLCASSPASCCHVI

[3] = biological target: T2, Peripheral plasma membrane protein CASK (Homo sapiens) (UniProt O14936); assay: Selectivity interaction (KinomeScan (DiscoverX)) EUB0000666a CASK; settings: at 10 µM
T2 sequence (whole entry): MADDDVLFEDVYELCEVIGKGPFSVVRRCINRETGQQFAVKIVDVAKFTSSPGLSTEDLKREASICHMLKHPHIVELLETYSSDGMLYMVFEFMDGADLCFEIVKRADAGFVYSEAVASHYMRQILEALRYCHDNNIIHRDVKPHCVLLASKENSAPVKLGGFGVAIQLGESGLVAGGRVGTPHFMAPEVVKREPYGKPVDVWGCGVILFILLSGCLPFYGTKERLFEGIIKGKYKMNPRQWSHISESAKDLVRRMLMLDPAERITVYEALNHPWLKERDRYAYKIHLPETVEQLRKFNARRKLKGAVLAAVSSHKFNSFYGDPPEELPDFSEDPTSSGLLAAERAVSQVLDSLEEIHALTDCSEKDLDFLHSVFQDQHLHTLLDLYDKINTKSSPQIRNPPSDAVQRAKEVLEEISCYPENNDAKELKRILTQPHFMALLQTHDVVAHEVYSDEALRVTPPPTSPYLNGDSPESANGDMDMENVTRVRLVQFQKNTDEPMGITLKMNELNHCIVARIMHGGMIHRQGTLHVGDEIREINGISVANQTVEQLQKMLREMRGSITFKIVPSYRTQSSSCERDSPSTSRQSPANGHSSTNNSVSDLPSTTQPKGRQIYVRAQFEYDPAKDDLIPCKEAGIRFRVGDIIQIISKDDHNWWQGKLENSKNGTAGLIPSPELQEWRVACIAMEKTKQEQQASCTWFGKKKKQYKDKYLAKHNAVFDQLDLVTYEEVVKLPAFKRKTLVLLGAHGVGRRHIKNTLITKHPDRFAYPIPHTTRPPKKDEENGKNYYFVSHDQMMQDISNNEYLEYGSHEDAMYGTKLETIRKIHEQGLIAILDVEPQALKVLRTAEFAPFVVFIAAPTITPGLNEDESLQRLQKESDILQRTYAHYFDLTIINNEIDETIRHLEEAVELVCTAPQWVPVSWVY

[4] = biological target: Ribosomal protein S6 kinase alpha-4 (Homo sapiens) (UniProt O75676); assay: Selectivity interaction (KinomeScan (DiscoverX)) EUB0001619a RPS6KA4; settings: at 1 µM
Chain of Ribosomal protein S6 kinase alpha-4 (Homo sapiens) (O75676 whole entry, looked up): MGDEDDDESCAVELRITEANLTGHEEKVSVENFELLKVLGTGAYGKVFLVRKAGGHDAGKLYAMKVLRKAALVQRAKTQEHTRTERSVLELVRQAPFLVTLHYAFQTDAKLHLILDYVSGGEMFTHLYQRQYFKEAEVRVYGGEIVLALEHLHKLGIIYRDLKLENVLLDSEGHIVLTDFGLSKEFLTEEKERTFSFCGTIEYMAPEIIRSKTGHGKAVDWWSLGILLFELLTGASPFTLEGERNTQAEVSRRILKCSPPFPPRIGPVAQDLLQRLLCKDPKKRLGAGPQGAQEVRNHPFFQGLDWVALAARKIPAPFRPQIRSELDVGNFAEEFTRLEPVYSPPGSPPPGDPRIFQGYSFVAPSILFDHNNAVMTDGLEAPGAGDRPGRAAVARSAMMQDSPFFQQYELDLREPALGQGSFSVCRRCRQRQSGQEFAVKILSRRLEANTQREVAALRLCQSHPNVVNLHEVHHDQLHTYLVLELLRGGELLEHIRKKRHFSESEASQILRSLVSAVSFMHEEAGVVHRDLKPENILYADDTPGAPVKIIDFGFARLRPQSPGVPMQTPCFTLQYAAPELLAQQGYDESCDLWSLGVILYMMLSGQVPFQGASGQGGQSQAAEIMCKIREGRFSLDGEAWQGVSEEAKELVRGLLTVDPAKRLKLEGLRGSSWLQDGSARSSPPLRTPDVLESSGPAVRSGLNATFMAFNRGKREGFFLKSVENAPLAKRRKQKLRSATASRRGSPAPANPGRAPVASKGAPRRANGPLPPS

[5] = biological target: T3, Serine/threonine-protein kinase TAO3 (Homo sapiens) (UniProt Q9H2K8); assay: Selectivity interaction (ActivX KiNativ screen (kinase selectivity in THP-1 cell lysates)) EUB0000639a TAOK3; assay type: subcellular; settings: lysate
T3 sequence (whole entry): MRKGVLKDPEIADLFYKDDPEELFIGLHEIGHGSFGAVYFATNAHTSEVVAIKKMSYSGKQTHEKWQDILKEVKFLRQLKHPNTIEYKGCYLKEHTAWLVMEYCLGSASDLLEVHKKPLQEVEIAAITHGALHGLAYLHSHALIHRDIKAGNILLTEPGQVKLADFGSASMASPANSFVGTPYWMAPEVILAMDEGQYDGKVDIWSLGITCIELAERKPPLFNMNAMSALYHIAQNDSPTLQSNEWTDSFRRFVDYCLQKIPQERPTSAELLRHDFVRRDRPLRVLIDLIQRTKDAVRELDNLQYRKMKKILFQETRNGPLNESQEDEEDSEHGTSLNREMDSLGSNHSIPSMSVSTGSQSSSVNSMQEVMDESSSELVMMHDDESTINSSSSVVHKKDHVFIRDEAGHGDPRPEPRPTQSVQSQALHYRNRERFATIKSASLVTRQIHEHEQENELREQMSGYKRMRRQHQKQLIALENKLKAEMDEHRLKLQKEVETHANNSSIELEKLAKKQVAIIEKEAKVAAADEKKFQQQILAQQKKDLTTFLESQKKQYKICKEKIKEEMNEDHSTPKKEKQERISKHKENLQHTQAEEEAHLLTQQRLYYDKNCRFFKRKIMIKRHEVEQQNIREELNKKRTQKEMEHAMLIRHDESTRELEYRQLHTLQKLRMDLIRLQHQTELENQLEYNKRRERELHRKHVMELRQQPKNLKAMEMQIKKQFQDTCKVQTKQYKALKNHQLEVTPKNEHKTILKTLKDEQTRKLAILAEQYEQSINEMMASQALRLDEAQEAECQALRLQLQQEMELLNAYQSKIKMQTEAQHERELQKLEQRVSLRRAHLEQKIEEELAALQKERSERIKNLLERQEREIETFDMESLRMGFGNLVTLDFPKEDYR

[6] = biological target: Protein-tyrosine kinase 2-beta (Homo sapiens) (UniProt Q14289); assay: Selectivity interaction (Ambit KINOMEscan and KiNATiv profiling in Jurkat cells) EUB0000090b PTK2B; assay type: cell-based; settings: at 1 µM
Chain of Protein-tyrosine kinase 2-beta (Homo sapiens) (Q14289 whole entry, looked up): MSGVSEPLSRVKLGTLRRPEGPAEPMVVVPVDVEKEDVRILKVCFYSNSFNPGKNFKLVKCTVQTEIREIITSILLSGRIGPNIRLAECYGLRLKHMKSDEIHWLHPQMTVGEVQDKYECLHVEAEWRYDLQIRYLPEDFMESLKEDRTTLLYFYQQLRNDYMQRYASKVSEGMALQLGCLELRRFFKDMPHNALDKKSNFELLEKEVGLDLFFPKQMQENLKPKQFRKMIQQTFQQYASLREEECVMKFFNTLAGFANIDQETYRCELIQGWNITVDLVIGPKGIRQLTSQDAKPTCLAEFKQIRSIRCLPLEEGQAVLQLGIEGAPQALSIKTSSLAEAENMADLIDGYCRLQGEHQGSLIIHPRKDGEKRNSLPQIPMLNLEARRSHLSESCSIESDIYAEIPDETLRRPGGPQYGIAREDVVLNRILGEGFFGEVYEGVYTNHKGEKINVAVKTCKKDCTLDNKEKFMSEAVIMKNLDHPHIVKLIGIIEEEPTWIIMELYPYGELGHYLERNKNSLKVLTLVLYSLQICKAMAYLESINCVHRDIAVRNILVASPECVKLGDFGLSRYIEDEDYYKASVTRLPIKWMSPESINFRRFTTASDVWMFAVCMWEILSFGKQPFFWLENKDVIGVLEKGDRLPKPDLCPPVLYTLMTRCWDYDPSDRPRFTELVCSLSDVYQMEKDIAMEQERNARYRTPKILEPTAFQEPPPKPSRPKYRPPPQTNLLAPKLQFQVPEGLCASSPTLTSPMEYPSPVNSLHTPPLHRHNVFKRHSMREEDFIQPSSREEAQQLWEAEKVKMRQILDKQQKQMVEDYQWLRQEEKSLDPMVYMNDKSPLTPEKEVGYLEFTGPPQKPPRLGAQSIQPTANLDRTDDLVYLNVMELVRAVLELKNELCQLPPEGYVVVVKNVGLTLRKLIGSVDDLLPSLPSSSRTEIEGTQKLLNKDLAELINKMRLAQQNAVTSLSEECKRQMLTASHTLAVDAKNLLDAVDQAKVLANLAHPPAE

Chain of Vascular endothelial growth factor receptor 3 (P35916 whole entry): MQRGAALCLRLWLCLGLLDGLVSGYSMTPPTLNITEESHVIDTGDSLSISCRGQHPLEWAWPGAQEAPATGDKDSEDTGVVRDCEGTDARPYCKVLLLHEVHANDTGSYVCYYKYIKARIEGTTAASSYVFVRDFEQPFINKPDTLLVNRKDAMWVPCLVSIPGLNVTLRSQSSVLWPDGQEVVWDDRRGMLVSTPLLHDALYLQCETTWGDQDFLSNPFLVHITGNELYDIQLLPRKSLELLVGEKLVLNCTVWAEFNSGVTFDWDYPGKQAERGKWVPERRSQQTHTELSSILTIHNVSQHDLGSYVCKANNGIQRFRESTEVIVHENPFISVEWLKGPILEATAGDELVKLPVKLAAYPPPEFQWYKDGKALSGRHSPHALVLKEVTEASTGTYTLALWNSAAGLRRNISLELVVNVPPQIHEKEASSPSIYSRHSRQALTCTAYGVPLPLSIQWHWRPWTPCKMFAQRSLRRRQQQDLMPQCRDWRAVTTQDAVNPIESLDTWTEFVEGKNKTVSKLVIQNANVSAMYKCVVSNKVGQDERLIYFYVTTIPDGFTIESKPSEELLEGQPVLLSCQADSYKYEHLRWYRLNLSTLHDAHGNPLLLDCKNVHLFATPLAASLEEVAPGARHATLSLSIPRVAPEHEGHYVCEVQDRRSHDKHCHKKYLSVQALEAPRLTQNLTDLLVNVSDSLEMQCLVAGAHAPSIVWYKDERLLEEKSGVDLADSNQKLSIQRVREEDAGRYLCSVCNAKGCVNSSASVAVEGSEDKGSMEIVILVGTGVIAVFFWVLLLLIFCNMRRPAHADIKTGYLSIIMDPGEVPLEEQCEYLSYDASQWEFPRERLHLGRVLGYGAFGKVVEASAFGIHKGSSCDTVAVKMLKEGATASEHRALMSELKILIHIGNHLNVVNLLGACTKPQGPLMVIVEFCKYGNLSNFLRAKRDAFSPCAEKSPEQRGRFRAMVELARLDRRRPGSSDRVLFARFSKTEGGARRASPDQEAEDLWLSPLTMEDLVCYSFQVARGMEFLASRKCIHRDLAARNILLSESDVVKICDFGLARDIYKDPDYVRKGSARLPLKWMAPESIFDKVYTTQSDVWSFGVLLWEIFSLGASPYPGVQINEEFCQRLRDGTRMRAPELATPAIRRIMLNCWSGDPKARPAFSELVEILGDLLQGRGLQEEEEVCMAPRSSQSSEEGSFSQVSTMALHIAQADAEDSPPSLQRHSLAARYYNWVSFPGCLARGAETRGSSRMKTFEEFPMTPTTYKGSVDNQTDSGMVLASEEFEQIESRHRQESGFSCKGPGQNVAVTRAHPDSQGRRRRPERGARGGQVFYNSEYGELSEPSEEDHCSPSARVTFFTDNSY

## COc1cc(N(C)c2ccnc3ccc(C(F)(F)F)cc23)cc(OC)c1OC
[1]
  % binding: 96%

## C=CC(=O)Nc1cc(-n2c(=O)ccc3cnc4ccc(-c5ccc(NS(C)(=O)=O)cc5)cc4c32)ccc1C
[2]; at 1 µM
  % of control: 100%
[2]; at 10 µM
  % of control: 58%

## O=C(NOC[C@H](O)CO)c1ccc(F)c(F)c1Nc1ccc(I)cc1F
[3]
  % of control: 67%

## N#Cc1cccc(-c2c[nH]c3ncnc(N4CCOCC4)c23)c1
[4]
  % of control: 100%

## CC[C@@H]1[C@H](F)C(=O)N[C@@H]1COc1nccc2cc(C(N)=O)c(OC)cc12 [ZIMLOVISERTIB]
[5]; at 0.01 µM
  % of inhibition: 6.6%
[5]; at 0.04 µM
  % of inhibition: -1.6%
[5]; at 0.2 µM
  % of inhibition: 6.9%
[5]; at 1 µM
  % of inhibition: 12.9%
[5]; at 5 µM
  % of inhibition: 41.7%

## CN(C)C/C=C/C(=O)Nc1ccc(C(=O)N2CCCC(Nc3ncc(Cl)c(-c4c[nH]c5ccccc45)n3)C2)cc1 (stereo unspecified)
[6]
  % of control: 93%
